Data set [1] concerns mouse leukemia P388 cells. Kind of data set: In vivo antitumor effects against mouse leukemia P388 cells. Conditions: for T/C (%) etc.: days 1, 5, 9, median survival time; for antitumor effect in P388 mice: in words. The method, then: 1) Leukemia P388 cells being transfer-cultured succesively in DBA/2 mouse, were grafted i.p. into each mouse of a group comprising 8 mice of 6 week old BDFI mouse as the dose of 1×10^6 cells/0.1 ml.
2) Sample drugs were dissolved in PBS or suspended in 0.5% Tween 80, and then injected into abdominal cavity of mouse at each prescribed concentration on days 1, 5, 9, respectively.
3) With observation every day, survival times of tested mice were measured. Antitumor activities was determined in such a manner that the increasing ratio(T/C %) of average survival days of drug-treated groups compared with the control group was calculated using the mean survival times of each tested groups.
* Experimental Conditions for Mouse P388
(§1) Animal: BDFI mouse (8 mice/group)
Inoculum size: 10^6 cells/mouse
(§2) Treatment time: days 1, 5, 9
(§3) Parameter: median survival time

In data set [2] the test system is L1210 and P388 mouse cancer cells. Kind of data set: In vitro antitumor activity against L1210 and P388 compared with mitomycin C (dye exclusion assay). Type of data set: cell-based. Conditions: in words. As for the experimental part:
(§4) B. Method of Experiment(Dye Exclusion Assay)
1) L-1210 and P388 cells that were cultured in RPMI 1640 media containing 10% FBS were regulated as the cell concentration of 1×10^6 cells/ml.
(§5) 2) Sample drugs diluted with log dose were added into the cells, and it were cultured at 37° C., for 48 hours, in […] incubater, and then viable cell number was measured, Viable cell number was measured with dye exclusion test using trypan blue.
3) The concentration of sample compounds of 50% cell growth inhibition compared with standard group was determined as IC50.

Data set [3] has as its system P388 (mouse lymphoid neoplasma cell). Kind of data set: In vitro antitumor effects against animal leukemia cells (dye exclusion assay), P388. Type of data set: cell-based. Conditions: 50% cell growth inhibition, 37° C., trypan blue; for IC50: Mus musculus, P388, 48 h, read-out: ED50 (the source's name); for ED50: 48 hours, 2880 min. As for the experimental part:
P388 (mouse lymphoid neoplasma cell)
as §4, §5

Data set [4] deals with 5 kinds of human solid cancer cell lines. Kind of data set: In vitro antitumor activity against 5 human solid cancer cell lines compared with cisplatin (SRB assay). Conditions: in words. The data set is classed as cell-based. As for the experimental part: Antitumor activities of the compounds of present invention were tested. Antitumor activities of compounds of the present invention were tested in vitro against 5 kinds of human tumor cell lines and 2 kinds of leukemia tumor cell lines. The method of in vitro test is as follows.
B. Method of test(SRB Assay Method)
a. Human solid tumor cell lines, […](non-small lung cell), SKMEL-2(melanoma), HCT-15(colon), SKOV-3(ovarian), XF-498(CNS) were cultured at 37° C., in 5% CO2 incubater using the RPMI 1640 media containing 10% FBS, while they were transfer-cultured successively once or twice per week. Cell cultures were dissolved into the solution of 0.25% trypsin and 3 mM CDTA PBS(-) and then cells were separated from media which the cells were sticked on.
b. 5×10^3 -2×10^4 cells were added into each well of 96-well plate and cultured in 5% CO2 incubater, at 37° C., for 24 hours.
c. Each sample drugs was dissolved in a small quantity of DMSO, and diluted to concentrations prescribed in experiment with media, and then the final concentration of DMSO was controlled below 0.5%.
d. A medium of each well cultured for 24 hours as above b., was removed by aspiration. 200 μl of drug samples prepared in c. was added into each well and the wells were cultured for 48 hours. Tz(time zero) plates were collected at the point of time drugs were added.
e. After Tz plates and plates were treated with cell fixing by TCA of SRB assay method, staining of 0.4% SRB solution, washing with 1% acetic acid, OD values were measured at 520 nm, following elution of dye with 10 mM Tris solution.
e. If T≥Tz, cellular response function was calculated with 100×(T-Tz)/(C-Tz), and if T<Tz, with 100×(T-Tz)/Tz.
(In general: The SRB assay estimates cell density from bound dye.)

Data set [5] deals with L1210 (mouse leukemia cell). Briefly: In vitro antitumor effects against animal leukemia cells (dye exclusion assay), L1210. Type of data set: cell-based. Particulars: 50% cell growth inhibition, 37° C., trypan blue; for IC50: Mus musculus, L1210, 48 h, read-out: ED50 (the source's name); for ED50: 48 hours, hydrochloride, 2880 min. The method, then: L1210(mouse leukemia cell)
as §4, §5

For the next data set, the system named is ICR mice. Briefly: Acute toxicity test (LD50), Litchfield-Wilcoxon method. The data set is classed as in vivo, mouse. On the set-up: unit not given here. Conditions: male ICR mice, 14 days.
In another data set the test system is B16 Melanoma. Briefly: In vivo antitumor activities against mouse solid tumor, B16 melanoma. Particulars: for T/C (%) Etc.: days 1, 5, 9, median survival time; for antitumor activities in B16 mouse melanoma: in words. As for the experimental part: BDF1 mouse was used in experiment while being successively transfer cultured in C57BL/6 mice by s.c.
1) After 1 g of tumor was added into cold balanced salt solution up to be 10 ml, it was homogenized (10:1,brei).
2) 0.5 ml Brei of the above 1) were grafted into each BDFI mouse by i.p.
3) Median survival time was measured, and the activity was determined in such a manner that if T/C was over 125%, it presented moderate activity, while if it is over 150%, it had significant activity.
* Experimental Conditions for Mouse B16 Melanoma.
as §1
Inoculum size: 10^5 cells/mouse
as §2, §3

Values after ≈ are worked out from the molar mass of the structure shown. Counter-ions that a name gives are not always drawn. A value given as a limit tells only on which side of the number the result lay.

As to `CCc1cc(NC(=O)N2CCN(c3cc(C)cc(C)c3)CC2)c(OC)nc1C` [Example 29, 1-[(5-ethyl-2-methoxy-6-methylpyrdin-3-yl)aminocarbonyl]-4-(3,5-dimethylphenyl)piperazine], the “T/C (%) etc.” value in data set [1] (50 mg/kg i.p.) was determined as 136.4%; in data set [1] (100 mg/kg i.p.), 190.9%. Also, the “antitumor effect in P388 mice” value in data set [1] is on record as “significant antitumor effect”. In addition, the “antitumor activities compared with mitomycin C” value in data set [2] was “same or more excellent antitumor activities”. In addition, the IC50 in data set [3] was 0.5 µg/mL (≈ 1.31 µM); in data set [5], 0.4 µg/mL (≈ 1.05 µM). In addition, the “antitumor activities compared with cisplatin” value in data set [4] is “superior antitumor activities to those of cisplatin”.
On to `COc1ccccc1N1CCN(C(=O)Nc2cc(C)c(C)nc2OC)CC1` [Example 108], for which the “antitumor activities compared with mitomycin C” value in data set [2] is reported as “same or more excellent antitumor activities”. Besides, the LD50 in the data set with ICR mice (i.p.) is > 2,000; in the data set on ICR mice (p.o.), > 3,110. Besides, the results for the IC50 in data set [3] and in data set [5] were 0.9 µg/mL (≈ 2.43 µM) and 0.8 µg/mL (≈ 2.16 µM), respectively. For the same molecule, the “antitumor activities compared with cisplatin” value in data set [4] is “superior antitumor activities to those of cisplatin”.
On to `CCc1cc(NC(=O)N2CCN(c3cc(OC)cc(OC)c3)CC2)c(OC)nc1C` [Example 6, 1-[(5-ethyl-2-methoxy-6-methylpyridin-3-yl)aminocarbonyl]-4-(3,5-dimethoxyphenyl)piperazine], for which the “T/C (%) Etc.” value in the data set on B16 Melanoma (Dose 50 (unit not given) i.p.) is 127.3%; with B16 Melanoma (Dose 100 (unit not given) i.p.), 124.2%; with B16 Melanoma (Dose 200 (unit not given) i.p.), 139.4%. In addition, the “antitumor activities in B16 mouse melanoma” value with B16 Melanoma was “significant antitumor activities”. In addition, the results for the “T/C (%) etc.” value in data set [1] (50 mg/kg i.p.) and in data set [1] (100 mg/kg i.p.) were 133.3% and 183.3%, respectively. In data set [1], the “antitumor effect in P388 mice” value is recorded as “significant antitumor effect”. Besides, in data set [2], the “antitumor activities compared with mitomycin C” value was “same or more excellent antitumor activities”. The results for the LD50 in the data set with ICR mice (i.p.) and in the data set on ICR mice (p.o.) were 248.5 and above 622, respectively. The IC50 in data set [3] came to 0.3 µg/mL (≈ 0.724 µM); in data set [5] it was 0.6 µg/mL (≈ 1.45 µM). For the same molecule, in data set [4], the “antitumor activities compared with cisplatin” value is on record as “superior antitumor activities to those of cisplatin”.
On to `CCc1cc(NC(=O)N2CCN(c3ccccc3OC)CC2)c(OC)nc1C` [Example 1, 1-[(5-ethyl-2-methoxy-6-methylpyridin-3-yl)aminocarbonyl]-4-(2-methoxyphenyl)piperazine], for which the figures for the “T/C (%) etc.” value in data set [1] (50 mg/kg i.p.) and in data set [1] (100 mg/kg i.p.) were 109.1% and 134.6%, respectively. Further, the “antitumor effect in P388 mice” value in data set [1] is reported as “significant antitumor effect”. Also, in data set [3], the ED50 turned out to be 0.6 µg/mL (≈ 1.56 µM). The “antitumor activities compared with cisplatin” value in data set [4] is given as “superior antitumor activities to those of cisplatin”. Moreover, the IC50 in data set [5] is 1.6 µg/mL (≈ 4.16 µM).
For the molecule `CCc1cc(NC(=O)N2CCN(c3cccc(Cl)c3)CC2)c(OC)nc1C` [Example 149, 1-[(5-ethyl-2-methoxy-6-methylpyridin-3-yl)aminocarbonyl]-4-(3-chlorophenyl)piperazine salt of hydrochloride], the “antitumor activities compared with mitomycin C” value in data set [2] is reported as “same or more excellent antitumor activities”. Also, the LD50 with ICR mice (i.p.) amounted to 410.5. For the same molecule, the “antitumor activities compared with cisplatin” value in data set [4] is “superior antitumor activities to those of cisplatin”. This molecule also registered an ED50 in data set [5] of 0.9 µg/mL.
Consider `COc1cc(OC)cc(N2CCN(C(=O)Nc3cc(C)c(C)nc3OC)CC2)c1` [Example 118, 1-[(5,6-dimethyl-2-methoxypyridin-3-yl)aminocarbonyl]-4-(3,5-dimethoxyphenyl)piperazine], for which the “antitumor activities compared with mitomycin C” value in data set [2] is given as “same or more excellent antitumor activities”. Also, the values for the LD50 in the data set with ICR mice (i.p.) and with ICR mice (p.o.) were 182.8 and 571.8, respectively. Also, the IC50 in data set [3] and in data set [5] was 0.06 µg/mL (≈ 0.15 µM) in each case. Further, in data set [4], the “antitumor activities compared with cisplatin” value is “superior antitumor activities to those of cisplatin”.
In the case of `CCc1cc(NC(=O)N2CCN(c3cc(Cl)ccc3OC)CC2)c(OC)nc1C` [Example 49, 1-[(5-ethyl-2-methoxy-6-methylpyridin-3-yl)aminocarbonyl]-4-(5-chloro-2-methioxyphenyl)piperazine], the “antitumor activities compared with mitomycin C” value in data set [2] is “same or more excellent antitumor activities”. Also, the IC50 in data set [3] worked out at 0.6 µg/mL (≈ 1.43 µM); in data set [5], 1.3 µg/mL (≈ 3.1 µM). Besides, the “antitumor activities compared with cisplatin” value in data set [4] was “superior antitumor activities to those of cisplatin”.
Take `CCc1cc(NC(=O)N2CCN(c3ccccc3OC)CC2)c(OC)nc1C` [Example 148, 1-[(5-ethyl-2-methoxy-6-methylpyridin-3-yl)aminocarbonyl]-4-[(2-methoxyphenyl)piperazine-2-yl]piperazine salt of hydrochloride]: the “antitumor activities compared with mitomycin C” value in data set [2] is reported as “same or more excellent antitumor activities”. The molecule also had an LD50 in the data set on ICR mice (i.p.) of 425.3. Besides, the ED50 in data set [3] (hydrochloride) was 1.3 µg/mL; in data set [5] it was 1.5 µg/mL.
For `CCc1cc(NC(=O)N2CCN(c3cccc(Cl)c3)CC2)c(OC)nc1C` [Example 16, 1-[(5-ethyl-2-methoxy-6-methylpyridin-3-yl)aminocarbonyl]-4-(3-chlorophenyl)piperazine], the figures for the “T/C (%) Etc.” value in the data set with B16 Melanoma (Dose 50 (unit not given) i.p.), in the data set with B16 Melanoma (Dose 100 (unit not given) i.p.) and with B16 Melanoma (Dose 200 (unit not given) i.p.) were 115.2%, 127.3% and 118.2%, respectively. For the same molecule, the “antitumor activities in B16 mouse melanoma” value with B16 Melanoma is recorded as “significant antitumor activities”. Besides, the “T/C (%) etc.” value is 113.6% in data set [1] (50 mg/kg i.p.) and 131.8% in data set [1] (100 mg/kg i.p.). The “antitumor effect in P388 mice” value in data set [1] was “significant antitumor effect”. For the same molecule, the IC50 in data set [3] came to 1.6 µg/mL (≈ 4.11 µM); in data set [5], 1.8 µg/mL (≈ 4.63 µM).
On to `CCc1cc(NC(=O)N2CCN(c3cccc(O)c3)CC2)c(OC)nc1C` [Example 38, 1-[(5-ethyl-2-methoxy-6-methylpyridin-3-yl)aminocarbonyl]-4-(3-hydroxyphenyl)piperazine], for which the “antitumor activities compared with mitomycin C” value in data set [2] is on record as “same or more excellent antitumor activities”. Also, the IC50 in data set [3] was found to be 1 µg/mL (≈ 2.7 µM); in data set [5] it was 1.4 µg/mL (≈ 3.78 µM). Further, the “antitumor activities compared with cisplatin” value in data set [4] was “superior antitumor activities to those of cisplatin”.
In the same order, the values of `COc1ccccc1N1CCN(C(=S)Nc2cc(C)c(C)nc2OC)CC1` [Example 128] are “same or more excellent antitumor activities”, 0.2 µg/mL (≈ 0.517 µM), 0.5 µg/mL (≈ 1.29 µM) and “superior antitumor activities to those of cisplatin”.

These data come from US5780472A, “Piperazine derivatives and methods for the preparation thereof and compositions containing the same” (Samjin Pharmaceuticazl Co., Ltd., priority 1995, dated 1998).
